This experiment has as its system M2 mutant viruses. It is filed as cell-based, influenza A virus.

“Also recorded” adds a separate entry of the source.

`NC12CC3CC(CC(C3)C1)C2` [amantadine]: the effect on replication entry is “either not affected or inhibited only slightly; also recorded: Substantial inhibition”.

These data come from patent US8057806B2 (priority 2000, dated 2011).
